Laboratory results: patent publication US7544365B2, “TRPV1+ sensory neurons control of β-cells stress and islet inflammation in diabetes” (priority 2006, dated 2009)
Entries after “also recorded” stand apart in the source; their conditions may differ.

Key:
[1] = test system: TRPV1; test: Capsaicin-evoked Ca^2+ responses in dorsal root ganglion neurons; type: cell-based, NOD and NOR mice; details: NOD DRG neurons compared with NOR, p<0.05
Experimental: Dorsal root ganglia from male NOD, NOR mice and NOD.B6.Idd4-congenic (5-10 wk) were isolated and cultured in F12 medium (Invitrogen) with 10 ng/mL nerve- and 10 ng/mL glial-derived nerve growth factor. Cultures were used 3-5 d after plating. The Ca^2+-sensitive fluorophore, fura-2 (Molecular Probes, Eugene, Oreg.), was used to assess [Ca^2+]i by ratiometric measurement. Excitation (340 and 380 nm) was generated by a xenon arc lamp and passed through a high-speed, computer-controlled, variable-wavelength monochromator. This light was transmitted to the recording dish via a fiberoptic cable. Emitted light was directed through a 510 nm bandpass filter and detected by an intensified CCD camera. Image data were analyzed off-line. Each 340 nm image was divided, on a pixel-by-pixel basis, by the corresponding 380 nm image, producing a ratio. Averaged values of the ratios within each region of interest were plotted as a function of time.

[2] = test system: TRPV1^+ sensory neurons; test: Glucose challenge and insulin tolerance after capsaicin removal of TRPV1^+ sensory neurons; type: in vivo, NOD.scid / NOD mice
Text: We compared measures of β-cell function in untreated and in capsaicin treated NOD.scid mice, and in C57/BL6J (‘B6’) and B6.TRPV1^−/− mice, the latter with a normal complement of sensory afferent neurons but absent TRPV1 expression (Caterina et al., 2000). NOD.scid mice were used to ascertain absence of lymphoid islet infiltration in NOD experiments, CD1 mice provided controls (FIGS. 17A-17C).
(§1) NOD, NOD.scid, BDC2.5 TCR transgenic NOD mice (‘BDC2.5-NOD’), NOD-β2m^null, C57BL/6 (‘B6’), B6-TRPV1^null, NOR NOD×B6 Idd4 congenic mice (NOD.B6-(D11Nds1-D11Mit325)/DelJ) were obtained from the Jackson Laboratories (Bar Harbor, Me.) and maintained under approved protocols in our vivarium (NOD female diabetes incidence: 85-90%). […] Control mice (NOD^ctrl) received 20 μL vehicle (10% ethanol, 10% Tween, 80% saline). In adoptive transfer experiments, splenocytes from 4-6 diabetic NOD females were pooled and 10^7 cells/mouse were injected (100 μL i.v.) into irradiated (300 rad) 6- to 8 wk-old NOD.scid recipients. Diastix strips were used to screen for glucosuria (Bayer HealthCare), diabetes was confirmed by diabetic blood glucose measurements on 2 consecutive days (>13.8 mM/l; SureStep, Life Technologies Inc., Burnaby, British Columbia, Canada).

[3] = test system: TRPV1^+ neurons; test: Systemic and pancreatic T cell development and function in NOD^caps versus NOD^ctrl mice; type: in vivo
Experimental: Delayed type hypersensitivity (DTH): […] Abdomens were shaved and 100 μl of the allergen were applied. 6 d later, the baseline thickness of right ears were measured by gauge before application of 10 μl 1% TNCB in oil or carrier only. Ear thickness was re-measured in sensitized and naïve animals 24 hr later. […] Calbiochem, San Diego, Calif.) were purchased, other antigens were previously generated and described (Winer et al., 2003). After 72 hrs, cultures were pulsed (1 μCi, [3H]thymidine/18 hrs) and counted by liquid scintillation. Lymph node assays were similar, but used 2×10^5 lymph node cells plus 2×10^5 irradiated (1,100 rad), syngeneic splenocytes/well. […] Bound antibodies were detected with biotinylated donkey anti-guinea pig or rat IgG (1:200, Jackson), Streptavidin AlexaFluor 546 or 633 (1:300, Molecular Probes, Eugene, Oreg.), and FITC conjugated donkey anti-rabbit IgG (1:25, Jackson). […] Histological sections were stained with hematoxylin and eosin and three blinded observers scored at the following scale: 0, normal islet; 1, peri-insulitis or encroachment of <25% of the islet surface area; 2, infiltration of 25-50% of the islet surface area; 3, infiltration of >50% of the islet surface area (Winer et al., 2003). […] Live events were collected based on forward- and side-scatter profiles on a FACScan flow cytometer (BD) and analyzed using FlowJo software (Stanford University).

[4] = test system: TRPV1^+ neurons; test: Neonatal capsaicin treatment of diabetes-prone NOD mice: insulitis and diabetes development; type: in vivo
Text: Using immunofluorescence, it was observed that murine islets are associated with meshworks of TRPV1^+ fibers (FIG. 1a). TRPV1 was undetectable in endocrine islet cells by immunofluorescence (FIG. 1a, b) and by RT-PCR of purified NOD islets (FIG. 9). based on this evidence of islet innervation by TRPV1^+ primary afferent sensory neurons, we investigated their possible role in T1D pathogenesis, using neonatal treatment of diabetes-prone NOD mice with capsaicin to permanently remove these neurons (Caterina and Julius, 2001; Jancso et al., 1977). Two day-old NOD mice received capsaicin (50 mg/kg, s.c.) or vehicle (NOD^caps, NOD^ctrl). […] We confirmed the lack of TRPV1 expression in NOD^caps mice, using immunofluorescence (FIG. 1a, b, TRPV1 green), Western blots (8, 12 & 20 wk), and standard hot-plate testing in randomly selected 5-6 wk old or in diabetic animals (FIG. 1c).
as §1
Frozen murine pancreas sections were fixed in 4% paraformaldehyde, blocked with 5% normal donkey serum (Jackson), and stained with polyclonal rat or goat antibodies against GFAP (Signet Pathology Systems, Dedham, Mass.), polyclonal rabbit anti-TRPV1 (Oncogene) or guinea-pig antibody against insulin (DAKO, Carpinteria, Calif.). Bound antibodies were detected with biotinylated donkey anti-guinea pig or rat IgG (1:200, Jackson), Streptavidin AlexaFluor 546 or 633 (1:300, Molecular Probes, Eugene, Oreg.), and FITC conjugated donkey anti-rabbit IgG (1:25, Jackson). […] TRPV1 staining was performed on snap-frozen sections of NOD female pancreas with an overnight incubation of primary antibody at 4° C. To score insulitis severity, pancreata were fixed in 10% buffered formalin for a minimum of 24 hr. Histological sections were stained with hematoxylin and eosin and three blinded observers scored at the following scale: 0, normal islet; 1, peri-insulitis or encroachment of <25% of the islet surface area; 2, infiltration of 25-50% of the islet surface area; 3, infiltration of >50% of the islet surface area (Winer et al., 2003). Spleen and lymph node cells were stained with either 2 nM PE-conjugated NRP-V7/H-2K^d or TUM/H-2K^d tetramers, the latter a negative control, in FACS buffer (1% v/v FBS, 0.1% w/v NaN3 in PBS) at 4° C. for 1 hr, followed by staining with FITC-conjugated anti-CD8 mAb (clone 53-6.7; […]) and PerCP-conjugated anti-B 220 Ab (clone RA6-3B2; […], both from BD Pharmingen). Tetramer positivity was analyzed on gated CD8+B220− cells and reported as percentage of cells binding the NRP-V7/H-2K^d tetramer minus the percentage of cells binding the negative control, TUM/H-2K^d tetramer.

[5] = Diabetes reversal after pancreatic i.a. substance P in newly diabetic NOD mice; type: in vivo
Experimental: (§2) Animals were anaesthetized with isoflurane and the aorta developed with minimal trauma to ligate above and below the celiac artery. A 32G needle was used to inject Evans Blue (3 mg/kg/100 μl; Sigma), substance P (2 nmol/100 μl; Sigma) or saline into the aorta just prior to the celiac branching. Ligations are released after closure of the injection site. For insulitis studies, pancreata from treated mice were obtained 48-72 hr after pancreas injection treatment and histology performed. In diabetes reversal experiments, newly diagnosed NOD female mice were treated with either saline or substance P and followed without exogenous insulin treatment.

[6] = test system: islet T cell infiltration; test: Intra-arterial pancreas injection of substance P in prediabetic NOD mice (insulitis); type: in vivo
Experimental: as §2
Frozen murine pancreas sections were fixed in 4% paraformaldehyde, blocked with 5% normal donkey serum (Jackson), and stained with polyclonal rat or goat antibodies against GFAP (Signet Pathology Systems, Dedham, Mass.), polyclonal rabbit anti-TRPV1 (Oncogene) or guinea-pig antibody against insulin (DAKO, Carpinteria, Calif.). Bound antibodies were detected with biotinylated donkey anti-guinea pig or rat IgG (1:200, Jackson), Streptavidin AlexaFluor 546 or 633 (1:300, Molecular Probes, Eugene, Oreg.), and FITC conjugated donkey anti-rabbit IgG (1:25, Jackson). […] TRPV1 staining was performed on snap-frozen sections of NOD female pancreas with an overnight incubation of primary antibody at 4° C. […]

[7] = test system: activated CD4+ NOD T cells; test: sP response of activated CD4+ NOD T cells in vitro (proliferation); type: cell-based, NOD mice
Experimental: Splenocytes from 3- to 24 wk-old NOD females were cultured (4×10^5 cells/well) in AIM V serum-free medium (Life Technologies) containing antigen (0.002-50 μg/ml), baculovirus-derived human GAD65 (Diamyd Diagnostics, Stockholm, Sweden), human GFAP (>90% pure) and bovine S100b (>98% pure; Calbiochem, San Diego, Calif.) were purchased, other antigens were previously generated and described (Winer et al., 2003). After 72 hrs, cultures were pulsed (1 μCi, [3H]thymidine/18 hrs) and counted by liquid scintillation. Lymph node assays were similar, but used 2×10^5 lymph node cells plus 2×10^5 irradiated (1,100 rad), syngeneic splenocytes/well. To normalize pooled data, we calculated a stimulation index (SI, cpm antigen stimulated/medium control), background counts were <1500 cpm in spleen cell and <1000 cpm in lymph node cultures. In some proliferation studies, plate-bound anti-CD3 (0.001-3 μg/ml; BD PharMingen) and anti-CD28 (0.2 μg/ml; BD PharMingen) were used to stimulate CD4+ T-cells negatively selected from NOD β2m^null splenocytes in the presence of substance P.

[8] = test system: BDC2.5 T cell receptor transgenic T cells; test: CFSE dye dilution in vivo clonal expansion of BDC2.5 T cells in pancreatic lymph nodes; parameters: species or system NOD mice
Experimental: For dye dilution in vivo clonal expansion studies, splenic CD4+ T-cells from NOD-BDC2.5 females were isolated by negative selection (Stemcell Technologies, Vancouver, Canada) and incubated with 2.5 μM CFSE (10′/37° C., Molecular Probes, Eugene, Oreg.) in PBS. Prediabetic (12 wk) NOD females pretreated 12 hr prior with substance P or saline, were injected i.v. with 3×10^6 CFSE-labeled CD4+ T-cells in sterile PBS.
Lymphocytes from thymus, pancreatic/axillary lymph nodes and spleen were stained with FITC, PE, and APC conjugated antibodies to CD3, CD4, CD8, CD44, CD25, CD69 CD62L and FoxP3 (BD Pharmingen, not all combinations are shown). NK-1R and Vβ4 antibodies were obtained from Novus Biologicals (Littleton, Colo.) and Cedarlane (Hornby, Canada), respectively. Live events were collected based on forward- and side-scatter profiles on a FACScan flow cytometer (BD) and analyzed using FlowJo software (Stanford University).

[9] = mice that failed to reverse hyperglycemia, i.a. sP
[10] = systemic (i.v.) injection of the same sP dose

## COc1cc(CNC(=O)CCCC/C=C/C(C)C)ccc1O [capsaicin]
[1]
  drug concentration required for maximum Ca^2+ response, NOD versus NOR DRG neurons: 10 fold
[2]; 10-12 wk old NOD.scid^caps versus NOD.scid^ctrl, p=0.004
  serum glucose levels after i.p. glucose challenge: significantly reduced
[2]; NOD.scid^caps versus NOD.scid^ctrl
  insulin production after glucose challenge: significantly less insulin production
[3]; NOD^caps mice, beyond 12-16 wk of age
  regulatory T cell compartment in pancreatic lymph nodes: maintained their regulatory T cell compartment
[3]; NOD^caps versus NOD^ctrl
  CD8+ and activated CD8+ CD69+ effector T lymphocytes in pancreatic lymph node tissue: significantly reduced proportions and absolute numbers
[4]; 50 mg/kg s.c. in 2 day-old mice
  tolerability of neonatal capsaicin treatment: viable, fertile, without abnormalities in growth or gross tissue structure, including pancreas; also recorded: no signs of adverse effects
[4]; NOD^caps mice (capsaicin 50 mg/kg s.c. at 2 days old), by age 20 wk
  islets free of lymphocytes: More than 70%
[4]; NOD^caps mice, p<0.0001
  islet infiltrations compared with NOD^ctrl: significantly reduced
[4]; neonatal capsaicin treatment, 35 wk plus next 12 wk, n=52 mice/group, p<0.0001
  reduction in final diabetes incidence: about 80%
[4]; neonatal capsaicin treatment, p=0.0002
  onset of diabetes: delayed the onset of diabetes
[4]; serial sectioning
  fraction of NOD^caps mice in which infiltrated islets were entirely absent: one third

## substance P
[5]; [9]
  body weight: preventing the progressive loss of body weight
  insulin sensitivity in non-responding mice: improved insulin sensitivity
[5]; newly diabetic NOD mice, 2-3 d after diagnosis, pancreatic i.a. sP, without insulin therapy
  normalization of blood glucose levels: over half of the i.a. injected diabetics normalized blood glucose levels
[5]; raising pancreatic sP levels, diabetic NOD mice
  insulin sensitivity: dramatically enhanced insulin sensitivity
[5]; responding mice
  time fasting blood glucose remained at near normal levels: 2-8 wk
[6]; prediabetic NOD, 12 wk of age, within 2d after i.a. sP injection (2 nmoles/kg)
  islets free of T cell infiltration: about 80%
[6]; [10]
  effect on islet T cell infiltration, systemic injection: did not have similar effects
[7]
  cell proliferation and survival: abrogated cell proliferation and survival in a dose-dependent fashion
[8]; cells in vitro pretreated with sP overnight, p=0.0045
  expansion in pancreatic lymph nodes of BDC2.5 cells pretreated in vitro: reduced the ability of these cells to expand in pancreatic lymph nodes
[8]; pancreatic i.a. sP 12-16 hr before transfer, analyzed 4 days later, dye dilution, p=0.003
  cellularity and clonal expansion of BDC2.5 T cells in pancreatic lymph nodes: reduced cellularity and clonal expansion
[8]; [10]
  expansion of BDC2.5 T cells in pancreatic lymph nodes, systemic injection: had no effect on expansion
